PubChem BioAssay AID330 (DTP/NCI, 2004)
“And” between values parts separate entries of the source, which are not always exact repeats. Equal values may be shown once. Inconclusive results and toxic doses are left out. Peptide text beside a SMILES is read from it. * marks the point of attachment. Cbz = O=C(OCc1ccccc1)*

Tested on: P388 leukemia ip, CD2F1 mice, survival T/C
Assay: NCI In Vivo Anticancer Drug Screen. Data for tumor model P388 Leukemia (intraperitoneal) in CD2F1 (CDF1) mice
Conditions: endpoint: median survival time, higher = longer survival
Outline: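 Mice carrying the transplanted tumor received test compound or vehicle. Survival was recorded in each group, and the value is the treated-group measurement divided by that of the vehicle-treated control group.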

[1] = dose: 50.0 mg/kg/injection, schedule: Q01DX009 (ip), vehicle: saline
[2] = dose: 100.0 mg/kg/injection, schedule: Q01DX009 (ip), vehicle: saline
[3] = dose: 200.0 mg/kg/injection, schedule: Q01DX009 (ip), vehicle: saline
[4] = dose: 12.5 mg/kg/injection, schedule: Q01DX009 (ip), vehicle: saline with Tween-80
[5] = dose: 25.0 mg/kg/injection, schedule: Q01DX009 (ip), vehicle: saline with Tween-80
[6] = dose: 50.0 mg/kg/injection, schedule: Q01DX009 (ip), vehicle: saline with Tween-80
[7] = dose: 50.0 mg/kg/injection, schedule: Q01DX005 (ip), vehicle: Klucel (hydroxypropylcellulose) (HPC)
[8] = dose: 100.0 mg/kg/injection, schedule: Q01DX005 (ip), vehicle: Klucel (hydroxypropylcellulose) (HPC)
[9] = dose: 200.0 mg/kg/injection, schedule: Q01DX005 (ip), vehicle: Klucel (hydroxypropylcellulose) (HPC)
[10] = dose: 50.0 mg/kg/injection, schedule: Q01DX009 (ip), vehicle: Klucel (hydroxypropylcellulose) (HPC)
[11] = dose: 100.0 mg/kg/injection, schedule: Q01DX009 (ip), vehicle: Klucel (hydroxypropylcellulose) (HPC)
[12] = dose: 200.0 mg/kg/injection, schedule: Q01DX009 (ip), vehicle: Klucel (hydroxypropylcellulose) (HPC)
[13] = dose: 25.0 mg/kg/injection, schedule: Q01DX009 (ip), vehicle: saline
[14] = dose: 60.0 mg/kg/injection, schedule: Q01DX005 (ip), vehicle: saline with Tween-80
[15] = dose: 120.0 mg/kg/injection, schedule: Q01DX005 (ip), vehicle: saline with Tween-80
[16] = dose: 240.0 mg/kg/injection, schedule: Q01DX005 (ip), vehicle: saline with Tween-80
[17] = dose: 100.0 mg/kg/injection, schedule: Q01DX009 (ip), vehicle: saline with Tween-80
[18] = dose: 200.0 mg/kg/injection, schedule: Q01DX009 (ip), vehicle: saline with Tween-80

CCOC(=O)CCC(=O)Oc1ccc2c(c1OC(=O)CCC(=O)OCC)C(=O)c1ccccc1C2=O
T/C (dose: 60.0 mg/kg/injection, schedule: Q01DX005 (ip), vehicle: Klucel (hydroxypropylcellulose) (HPC)): 97 % of control
T/C (dose: 120.0 mg/kg/injection, schedule: Q01DX005 (ip), vehicle: Klucel (hydroxypropylcellulose) (HPC)): 97 % of control
T/C (dose: 240.0 mg/kg/injection, schedule: Q01DX005 (ip), vehicle: Klucel (hydroxypropylcellulose) (HPC)): 95 % of control

O=c1cc(O)nc2cn[nH]n12
T/C [1]: 99 % of control
T/C [2]: 90 % of control
T/C [3]: 101 % of control

O=[N+]([O-])c1cc2no[n+]([O-])c2cc1N1CCCCC1
T/C (dose: 3.75 mg/kg/injection, schedule: Q01DX009 (ip), vehicle: saline): 97 % of control
T/C (dose: 3.75 mg/kg/injection, schedule: Q01DX009 (ip), vehicle: suspension in saline): 94 % of control
T/C (dose: 7.5 mg/kg/injection, schedule: Q01DX009 (ip), vehicle: saline): 114 % of control
T/C (dose: 7.5 mg/kg/injection, schedule: Q01DX009 (ip), vehicle: suspension in saline): 103 % of control
T/C (dose: 15.0 mg/kg/injection, schedule: Q01DX009 (ip), vehicle: saline): 101 % of control
T/C (dose: 15.0 mg/kg/injection, schedule: Q01DX009 (ip), vehicle: suspension in saline): 103 % of control
T/C (dose: 30.0 mg/kg/injection, schedule: Q01DX009 (ip), vehicle: saline): 108 % of control
T/C (dose: 30.0 mg/kg/injection, schedule: Q01DX009 (ip), vehicle: suspension in saline): 122 % of control

C[N+]1(C)N=C([O-])N(c2ccccc2C(F)(F)F)C1=O
T/C [4]: 99 % of control
T/C [5]: 99 % of control
T/C [6]: 106 % of control

O=C1O/C(=C(/C(=O)O)c2ccc(O)cc2)C(O)=C1c1cc2c3c(c(O)cc(C4=C(O)/C(=C(\C(=O)O)c5ccc(O)cc5)OC4=O)c3c1)OC2=O
T/C (dose: 10.25 mg/kg/injection, schedule: Q01DX005 (ip), vehicle: DMSO): 94 % of control
T/C (dose: 12.0 mg/kg/injection, schedule: Q01DX005 (ip), vehicle: DMSO): 98 % of control
T/C (dose: 20.5 mg/kg/injection, schedule: Q01DX005 (ip), vehicle: DMSO): 110 % of control
T/C (dose: 24.0 mg/kg/injection, schedule: Q01DX005 (ip), vehicle: DMSO): 106 % of control
T/C (dose: 41.0 mg/kg/injection, schedule: Q01DX005 (ip), vehicle: DMSO): 106 % of control

Cl/N=N/c1nc(-c2ccccc2)[nH]c1-c1ccccc1
T/C (dose: 50.0 mg/kg/injection, schedule: Q01DX001 (ip), vehicle: suspension in saline): 109 % of control
T/C (dose: 100.0 mg/kg/injection, schedule: Q01DX001 (ip), vehicle: suspension in saline): 101 % of control
T/C (dose: 200.0 mg/kg/injection, schedule: Q01DX001 (ip), vehicle: suspension in saline): 99 % of control

CC1=CCC(C#N)N(C)C1c1ccccc1 (configuration not stated)
T/C [7]: 108 % of control
T/C [8]: 97 % of control
T/C [9]: 99 % of control

CC(C)C(=O)CP(=O)(O)O
T/C [1]: 106 % of control
T/C [2]: 101 % of control
T/C [3]: 108 % of control

CCOC(=O)/C=C/c1c[nH]c(C(=O)OCC)c1
T/C [10]: 93 % of control
T/C [11]: 91 % of control
T/C [12]: 93 % of control
T/C (dose: 400.0 mg/kg/injection, schedule: Q01DX009 (ip), vehicle: Klucel (hydroxypropylcellulose) (HPC)): 108 % of control

O=C(O)CCc1cccc(O)c1
T/C [13]: 110 % of control
T/C [1]: 101 % of control
T/C [2]: 103 % of control
T/C [3]: 95 % of control

C=C1CCC2(O)C(=C)C(=O)OC2C2C(=C)CCC12 (configuration not stated)
T/C (dose: 4.0 mg/kg/injection, schedule: Q01DX009 (ip), vehicle: Klucel (hydroxypropylcellulose) (HPC)): 96 % of control
T/C (dose: 8.0 mg/kg/injection, schedule: Q01DX009 (ip), vehicle: Klucel (hydroxypropylcellulose) (HPC)): 100 % of control
T/C (dose: 16.0 mg/kg/injection, schedule: Q01DX009 (ip), vehicle: Klucel (hydroxypropylcellulose) (HPC)): 102 % of control
T/C (dose: 32.0 mg/kg/injection, schedule: Q01DX009 (ip), vehicle: Klucel (hydroxypropylcellulose) (HPC)): 110 % of control

Clc1cc(Cl)c2n[se]nc2n1
T/C (dose: 25.0 mg/kg/injection, schedule: Q04DX002 (ip), vehicle: saline): 100 % of control
T/C (dose: 50.0 mg/kg/injection, schedule: Q04DX002 (ip), vehicle: saline): 106 % of control
T/C (dose: 100.0 mg/kg/injection, schedule: Q04DX002 (ip), vehicle: saline): 116 % of control and 123 % of control

COc1cc(C(Nc2ncccn2)c2cc3c(cc2OC(C)=O)OCO3)cc(OC)c1OC (configuration not stated)
T/C [14]: 98 % of control
T/C [15]: 98 % of control
T/C [16]: 95 % of control

CCN(CC)CCOC(=O)C(C(=O)OCCN(CC)CC)C1CCCC1
T/C (dose: 50.0 mg/kg/injection, schedule: Q01DX005 (ip), vehicle: saline): 94 % of control
T/C (dose: 100.0 mg/kg/injection, schedule: Q01DX005 (ip), vehicle: saline): 92 % of control
T/C (dose: 200.0 mg/kg/injection, schedule: Q01DX005 (ip), vehicle: saline): 100 % of control

CP1(=O)CC(=O)CCCCC(=O)C1
T/C (dose: 6.25 mg/kg/injection, schedule: Q01DX009 (ip), vehicle: saline): 104 % of control
T/C (dose: 12.5 mg/kg/injection, schedule: Q01DX009 (ip), vehicle: saline): 114 % of control
T/C [13]: 104 % of control
T/C [17]: 100 % of control
T/C [18]: 98 % of control

CN(C)C1C(=O)C(C(N)=O)=C(O)C2(O)C(=O)C3=C(O)c4c(O)cccc4C(C)(O)C3CC12.[Cl][Sb]([Cl])[Cl] (configuration not stated)
T/C (dose: 50.0 mg/kg/injection, schedule: Q01DX005 (ip), vehicle: saline with Tween-80): 119 % of control
T/C (dose: 100.0 mg/kg/injection, schedule: Q01DX005 (ip), vehicle: saline with Tween-80): 108 % of control

Oc1ccc(C2(c3ccc(O)c(Cl)c3)CC3CCC2C3)cc1Cl (configuration not stated)
T/C (dose: 0.79 mg/kg/injection, schedule: Q01DX009 (ip), vehicle: saline with Tween-80): 103 % of control and 111 % of control
T/C (dose: 1.56 mg/kg/injection, schedule: Q01DX009 (ip), vehicle: saline with Tween-80): 103 % of control and 116 % of control
T/C (dose: 3.12 mg/kg/injection, schedule: Q01DX009 (ip), vehicle: saline with Tween-80): 103 % of control and 105 % of control
T/C (dose: 6.25 mg/kg/injection, schedule: Q01DX009 (ip), vehicle: saline with Tween-80): 111 % of control and 94 % of control
T/C [4]: 97 % of control
T/C [5]: 98 % of control

O=S1(=O)CCN(C2CCCC2)CC1
T/C (dose: 25.0 mg/kg/injection, schedule: Q01DX009 (ip), vehicle: Klucel (hydroxypropylcellulose) (HPC)): 94 % of control
T/C [10]: 93 % of control and 95 % of control
T/C [11]: 92 % of control and 95 % of control
T/C [12]: 99 % of control and 94 % of control

CCc1ccc(C(=O)N/N=C(\C)[C@]2(O)Cc3c(O)c4c(c(O)c3[C@@H](OC3CC(N)C(O)C(C)O3)C2)C(=O)c2c(OC)cccc2C4=O)cc1 (some centres not stated)
T/C (dose: 0.12 mg/kg/injection, schedule: Q01DX009 (ip), vehicle: water): 111 % of control
T/C (dose: 1.0 mg/kg/injection, schedule: Q01DX009 (ip), vehicle: water): 154 % of control and 163 % of control
T/C (dose: 2.0 mg/kg/injection, schedule: Q01DX009 (ip), vehicle: water): 160 % of control and 175 % of control
T/C (dose: 4.0 mg/kg/injection, schedule: Q01DX009 (ip), vehicle: water): 151 % of control and 175 % of control
T/C (dose: 8.0 mg/kg/injection, schedule: Q01DX009 (ip), vehicle: water): 86 % of control and 93 % of control

COc1cc2c(cc1OC)-c1[nH]ncc1CC2
T/C [6]: 101 % of control
T/C [17]: 101 % of control
T/C [18]: 106 % of control

O=C1Cc2ccccc2C(O)=C1c1cnccn1
T/C (dose: 15.0 mg/kg/injection, schedule: Q01DX005 (ip), vehicle: saline with Tween-80): 93 % of control
T/C (dose: 30.0 mg/kg/injection, schedule: Q01DX005 (ip), vehicle: saline with Tween-80): 99 % of control
T/C [14]: 101 % of control and 102 % of control

Cc1c(O)cccc1O
T/C [2]: 105 % of control

Cc1cc(C)nc(/C=C/c2ccc(/C=C/c3cc(C)cc(C)n3)cc2)c1
T/C [14]: 97 % of control
T/C [15]: 87 % of control
T/C [16]: 92 % of control

COC(=O)C(CO)NC(=O)C(NC(=O)OCc1ccccc1)C(C)O (stereo not drawn) (Cbz-Thr-Ser-OMe; configuration not given here)
T/C [7]: 118 % of control
T/C [8]: 101 % of control
T/C [9]: 108 % of control
